Tests used:
Adenosine receptor A2b = target: T1, Adenosine receptor A2b (Homo sapiens, UniProt P29275)
T1 sequence (P29275 whole entry): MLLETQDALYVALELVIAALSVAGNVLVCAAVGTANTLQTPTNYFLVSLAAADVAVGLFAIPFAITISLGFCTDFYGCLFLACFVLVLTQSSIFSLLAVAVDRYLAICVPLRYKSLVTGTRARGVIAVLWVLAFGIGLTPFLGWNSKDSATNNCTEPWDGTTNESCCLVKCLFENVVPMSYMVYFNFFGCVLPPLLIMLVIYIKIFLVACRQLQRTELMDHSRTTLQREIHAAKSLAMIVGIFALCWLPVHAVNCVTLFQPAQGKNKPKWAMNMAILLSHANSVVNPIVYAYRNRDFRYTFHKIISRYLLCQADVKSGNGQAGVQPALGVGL
Description: Binding affinity to recombinant human adenosine A2B receptor

Adenosine receptor A2a [1] = target: T2, Adenosine receptor A2a (Homo sapiens, UniProt P29274)
Description: Binding affinity to recombinant human adenosine A2A receptor

[2] = target: T3, Adenosine receptor A2b (Homo sapiens) (UniProt P29275); test: Displacement of [3H]DPCPX from recombinant human adenosine A2B receptor expressed in HEK293 cells at 0.01 uM
T3 sequence (whole entry): T1 sequence (P29275 whole entry)

Adenosine receptor A2a [3] = target: T2, Adenosine receptor A2a; test: Displacement of [3H]ZM-241385 from recombinant human adenosine A2A receptor expressed in HeLa cells at 0.1 uM
[4] = target: T3, Adenosine receptor A2b (Homo sapiens); test: Displacement of [3H]DPCPX from recombinant human adenosine A2B receptor expressed in HEK293 cells at 0.1 uM; assay type: cell-based

T2 sequence (P29274 whole entry): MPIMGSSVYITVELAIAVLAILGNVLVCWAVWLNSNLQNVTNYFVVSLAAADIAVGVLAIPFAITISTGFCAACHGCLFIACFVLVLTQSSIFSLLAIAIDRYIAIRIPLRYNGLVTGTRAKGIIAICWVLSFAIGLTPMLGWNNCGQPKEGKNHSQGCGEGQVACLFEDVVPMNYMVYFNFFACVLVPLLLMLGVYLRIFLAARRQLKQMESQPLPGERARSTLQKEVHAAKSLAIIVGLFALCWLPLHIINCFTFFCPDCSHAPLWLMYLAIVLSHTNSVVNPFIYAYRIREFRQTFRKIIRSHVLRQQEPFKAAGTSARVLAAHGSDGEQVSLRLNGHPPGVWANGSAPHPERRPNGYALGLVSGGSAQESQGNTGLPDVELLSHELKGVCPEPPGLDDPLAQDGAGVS

Structure (SMILES) | Ki (Adenosine receptor A2b) | Ki (Adenosine receptor A2a [1]) | inhibition [2] | inhibition (Adenosine receptor A2a [3]) | inhibition [4]
CCCn1c(=O)c2[nH]c(-c3ccc(OCC(=O)Nc4ccc(C(=O)OCC)cc4)cc3)cc2n(CCC)c1=O | 56.2 nM | 100 nM | 6% | 30% | 57%
COc1cc(-c2cc3c([nH]2)c(=O)n(C)c(=O)n3C)ccc1OCC(=O)NCc1ccc(Cl)cc1 | 186 nM | 158 nM | 5% | 23% | 43%
Cn1c(=O)c2[nH]c(-c3ccc(OCC(=O)NCc4ccco4)cc3)cc2n(C)c1=O | 70.8 nM | 316 nM | 10% | 13% | 52%
COc1cc(OCC(=O)Nc2ccccc2)ccc1-c1cc2c([nH]1)c(=O)n(C)c(=O)n2C | 69.2 nM | 1050 nM | 12% | 13% | 55%
Cn1c(=O)c2[nH]c(-c3ccc(OCC(=O)NCc4ccc(Cl)cc4)cc3)cc2n(C)c1=O | 4.9 nM | 20.4 nM | 61% | 75% | 93%
CCCn1c(=O)c2[nH]c(-c3ccc(OC(C)C(=O)O)cc3)cc2n(CCC)c1=O (stereo not drawn) | 43.7 nM | 1000 nM | – | 8% | 44%
COc1cc(-c2cc3c([nH]2)c(=O)n(C)c(=O)n3C)ccc1OCC(=O)Nc1ccc(Br)cc1 | 38.9 nM | 81.3 nM | 15% | 32% | 78%
Cn1c(=O)c2[nH]c(-c3ccc(OCC(=O)Nc4ccc([N+](=O)[O-])cc4)cc3)cc2n(C)c1=O | 6.92 nM | 81.3 nM | 52% | 30% | 82%
Cn1c(=O)c2[nH]c(-c3ccc(OCC(=O)Nc4ccc(CCN)cc4)cc3)cc2n(C)c1=O | 186 nM | 166 nM | 7% | 38% | 34%
CCCn1c(=O)c2[nH]c(-c3ccc(OCC(=O)Nc4ccc(I)cc4)cc3)nc2n(CCC)c1=O | – | 5890 nM | – | – | –
CCCn1c(=O)c2[nH]c(-c3ccc(OCC(=O)Nc4ccccc4)cc3)c(Br)c2n(CCC)c1=O | 24.5 nM | 42.7 nM | 16% | 54% | 73%
CCOC(=O)COc1ccc(-c2cc3c([nH]2)c(=O)n(C)c(=O)n3C)cc1OC | 1510 nM | 3720 nM | – | 18% | 8%
CCCn1c(=O)c2[nH]c(-c3ccc(OCC(=O)c4c(NC(=O)O)[nH]c(=O)n(C)c4=O)cc3)cc2n(CCC)c1=O | 21.9 nM | 15.8 nM | 21% | 76% | 66%
CCCn1c(=O)c2[nH]c(-c3ccc(OCC(=O)Nc4ccc(C)cc4)cc3)c(Cl)c2n(CCC)c1=O | 18.6 nM | 32.4 nM | 38% | 50% | 78%
CCCn1c(=O)c2[nH]c(-c3ccc(OCC(=O)Nc4ccc(C5=NC(C)(C)CO5)cc4)cc3)cc2n(CCC)c1=O | 34.7 nM | 91.2 nM | 11% | 25% | 67%
CCOC(=O)COc1ccc(-c2cc3c([nH]2)c(=O)n(CC)c(=O)n3CCCOC)cc1 | 66.1 nM | 447 nM | – | 16% | 57%
CCCn1c(=O)c2[nH]c(-c3ccc(OCC(=O)Nc4ccccc4Cl)cc3)c(Cl)c2n(CCC)c1=O | 83.2 nM | 263 nM | 5% | 23% | 44%
Cn1c(=O)c2[nH]c(-c3ccc(OCC(=O)Nc4nncs4)cc3)cc2n(C)c1=O | 15.1 nM | 16.2 nM | 36% | 43% | 81%
CCCn1c(=O)c2[nH]c(-c3ccc(OC(C)(C)C(=O)Nc4ccccc4)cc3)cc2n(CCC)c1=O | 7.94 nM | 53.7 nM | 51% | 57% | 93%
CCCn1c(=O)c2[nH]c(-c3ccc(OCC(=O)Nc4ccc(CS(=O)(=O)N5CCCC5)cc4)cc3)cc2n(CCC)c1=O | 7.76 nM | 52.5 nM | 58% | 31% | 70%
CCCn1c(=O)c2[nH]c(-c3ccc(OCC(=O)Nc4ccc([N+](C)(C)C)cc4)cc3)cc2n(CCC)c1=O | 91.2 nM | 708 nM | 4% | 8% | 52%
CCCn1c(=O)c2[nH]c(-c3ccc(OCC(=O)Nc4ccc(OC)cc4)cc3)cc2n(CCC)c1=O | 12 nM | 20 nM | 22% | 52% | 80%
Cn1c(=O)c2[nH]c(-c3cccc(OCC(=O)Nc4ccc(Br)cc4)c3)cc2n(C)c1=O | 44.7 nM | 67.6 nM | 15% | 45% | 73%
CCCn1c(=O)c2[nH]c(-c3ccc(OCC(=O)NCc4ccccc4)cc3)cc2n(CCC)c1=O | 3.16 nM | 89.1 nM | 78% | 38% | 95%

Structure (SMILES) | Ki (Adenosine receptor A2b) | Ki (Adenosine receptor A2a [1]) | inhibition [2] | inhibition (Adenosine receptor A2a [3]) | inhibition [4]
CCCn1c(=O)c2[nH]c(-c3ccc(OC(C)C(=O)Nc4ccccc4)cc3)cc2n(CCC)c1=O (stereo not drawn) | 5.13 nM | 105 nM | 50% | 42% | 92%
CCCn1c(=O)c2[nH]c(-c3ccc(OCC(=O)O)cc3)c(Cl)c2n(CCC)c1=O | 158 nM | 398 nM | – | 19% | 36%
CCCn1c(=O)c2[nH]c(-c3ccc(OCC(=O)Nc4ccc(OC)nc4)cc3)cc2n(C)c1=O | 3.16 nM | 132 nM | 57% | 30% | 99%
CCCn1c(=O)c2[nH]c(-c3ccc(OCC(=O)Nc4ccccc4)cc3)c(Cl)c2n(CCC)c1=O | 37.2 nM | 74.1 nM | 11% | 37% | 57%
Cn1c(=O)c2[nH]c(-c3ccc(OCC(=O)O)cc3)cc2n(C)c1=O | 123 nM | 4170 nM | – | 14% | 47%
COCCCn1c(=O)n(C)c(=O)c2[nH]c(-c3ccc(OCC(=O)O)cc3)cc21 | 214 nM | 11500 nM | – | 11% | 35%
CCOC(=O)COc1ccc(-c2cc3c([nH]2)c(=O)n(C)c(=O)n3CCCOC)cc1 | 372 nM | 1860 nM | – | 5% | 22%
CCCn1c(=O)c2nc(-c3cc(OCC(=O)c4ccc(F)cc4)n(C)n3)[nH]c2n(CCC)c1=O | > 1000 nM | 186 nM | – | – | –
CCOC(=O)COc1ccc(-c2cc3c([nH]2)c(=O)n(C)c(=O)n3C)cc1 | 288 nM | 1950 nM | – | 10% | 25%
CCCn1c(=O)c2nc(-c3cc(OCC(=O)c4ccc(Br)cc4)n(C)n3)[nH]c2n(CCC)c1=O | > 1000 nM | 93.3 nM | – | – | –
CCCn1c(=O)c2[nH]c(-c3cc(OCC(=O)c4ccc(C)cc4)nn3C)nc2n(CCC)c1=O | > 1000 nM | 19.1 nM | – | – | –
CCCn1c(=O)c2[nH]c(-c3ccc(OCC(=O)O)cc3)c(Br)c2n(CCC)c1=O | 79.4 nM | 490 nM | – | 11% | 48%
CCCn1c(=O)c2[nH]c(-c3ccc(OCC(=O)O)cc3)cc2n(C)c1=O | 43.7 nM | 4070 nM | – | 21% | 63%
CCCn1c(=O)c2nc(-c3ccc(OCC(=O)c4ccc(I)cc4)cn3)[nH]c2n(CCC)c1=O | > 1000 nM | 11 nM | – | – | –
CCCn1c(=O)n(C)c(=O)c2[nH]c(-c3ccc(OCC(=O)O)cc3)cc21 | 45.7 nM | 776 nM | – | 15% | 51%
CCCn1c(=O)c2[nH]c(-c3ccc(OCC(=O)O)cc3)cc2n(CCC)c1=O | 15.8 nM | 123 nM | – | – | –
CCCn1c(=O)c2nc(-c3cc(OCC(=O)c4ccc(C(C)=O)cc4)nn3C)[nH]c2n(CCC)c1=O | > 1000 nM | 87.1 nM | – | – | –
CCCn1c(=O)c2[nH]c(-c3ccc(OCC(=O)Nc4ccc(Cl)cc4)cc3)nc2n(CCC)c1=O | 7.94 nM | 191 nM | – | – | –
CCCn1c(=O)c2nc(-c3cc(OCC(=O)c4ccc(F)cc4)nn3C)[nH]c2n(CCC)c1=O | > 1000 nM | 12.6 nM | – | – | –
CCn1c(=O)c2[nH]c(-c3ccc(OCC(=O)O)cc3)cc2n(CCCOC)c1=O | 72.4 nM | 933 nM | – | 20% | 66%
CCCn1c(=O)c2nc(-c3cc(OCC(=O)c4ccc(C(=O)OCC)cc4)nn3C)[nH]c2n(CCC)c1=O | > 1000 nM | 32.4 nM | – | – | –
CCCn1c(=O)c2[nH]c(-c3ccc(OCC(=O)c4ccc(I)cc4)cc3)nc2n(CCC)c1=O | 5890 nM | 2.14 nM | – | – | –
CCCn1c(=O)c2[nH]c(-c3ccc(OCC(=O)c4ccc(I)cc4)nn3)nc2n(CCC)c1=O | > 1000 nM | > 1000 nM | – | – | –
CCCn1c(=O)c2[nH]c(-c3cc(OCC(=O)c4ccc(Br)cc4)nn3C)nc2n(CCC)c1=O | > 1000 nM | 25.1 nM | – | – | –
